From PMC3139790 (Bioorganic & medicinal chemistry, 2011)

Experiments:
HIV-1LAI [1] = conditions: HIV-1 infected MT-2 cells, previous studies; cited from earlier work
[2] = system: genotype 1b and 2a HCV replicons; experiment: HCV replicon assays, genotype 1b and 2a stated together; assay type: cell-based, hepatitis C virus; conditions: for EC50: Hepatitis C virus, GETYPE1B, read-out: EC50 in genotype 1b and 2a HCV replicons
[3] = system: genotype 2a HCV replicon (JFH-1); experiment: HCV replicon assay, JFH-1; assay type: cell-based, hepatitis C virus; conditions: CC50/EC50, genotype 2a
[4] = system: genotype 1b HCV replicon (BM4-5); experiment: HCV replicon assay, BM4-5; assay type: cell-based, hepatitis C virus; conditions: CC50/EC50, genotype 1b
HIV-1LAI [5] = experiment: HIV-1 inhibition assay in MT-2 cells; assay type: cell-based; conditions: HIV-1 in MT-2 cells
HCMV = conditions: read-out: EC50 HCMV; in vitro; ref Beadle et al. (ref. [13]); cited from earlier work
Vaccinia = conditions: read-out: EC50 Vaccinia; in vitro; ref Beadle et al. (ref. [13]); cited from earlier work
Cowpox = conditions: read-out: EC50 Cowpox; cited from earlier work

Q: With `Nc1ncnc2c1ncn2CCOCP(=O)(O)O` [adefovir] as the compound, how does the EC50 (HIV-1LAI [1]) read?
A: 1100 nM

Q: Which EC50 [2] does the source give for `CCCCCCCCCCCCCCCCOCCCOP(=O)(O)CO[C@H](COC)Cn1cnc2c(OC)ncnc21` [Compound 43, Hexadecyloxypropyl (S)-9-[(3-methoxy-2-phosphonomethoxy)propyl]-6-methoxypurine] here?
A: 8900 to 12500 nM

Q: With `CCCCCCCCCCCCCCCCCCOCCOP(=O)([O-])CO[C@H](COC)Cn1cnc2c(=O)[nH]c(N)nc21.[Na+]` [Compound 34, Octadecyloxyethyl (S)-9-[(3-methoxy-2-phosphonomethoxy)propyl]guanine] as the compound, how does the “Selectivity Index JFH-1 (2a)” value [3] read?
A: >14.0

Q: What about the “Selectivity Index BM4-5 (1b)” value [4] of the same compound?
A: >18.2

Q: Which “anti-HCV activity (in words)” value ([2]; genotype 1b and 2a replicons) does the source give for `CCCCCCCCCCCCCCCCCCOCCOP(=O)([O-])CO[C@H](COC)Cn1ccc(N)nc1=O.[Na+]` [Compound 40, Octadecyloxyethyl (S)-1-[(3-methoxy-2-phosphonomethoxy)propyl]cytosine] here?
A: inactive

Q: With `C[C@H](Cn1cnc2c(N)ncnc21)OCP(=O)(O)O` [tenofovir] as the compound, how does the EC50 (HIV-1LAI [1]) read?
A: 650 nM

Q: Which EC50 [2] does the source give for `CCCCCCCCCCCCCCCCOCCCOP(=O)(O)CO[C@H](COC)Cn1cnc2c(OC)nc(N)nc21` [Compound 44, Hexadecyloxypropyl (S)-9-[(3-methoxy-2-phosphonomethoxy)propyl]-6-O-methylguanine] here?
A: 18000 to 26000 nM

Q: Which EC50 [2] does the source give for `CCCCCCCCCCCCCCCCCCOCCOP(=O)(O)CO[C@H](COC)Cn1cnc2c(N)ncnc21` [Compound 15, Octadecyloxyethyl (S)-9-[(3-methoxy-2-phosphonomethoxy)propyl]adenine] here?
A: 1000 to 2000 nM

Q: For `CCCCCCCCCCCCCCCCCCOCCOP(=O)([O-])CO[C@@H](COC)Cn1cnc2c(=O)[nH]c(N)nc21.[Na+]` [Compound 35, Octadecyloxyethyl (R)-9-[(3-methoxy-2-phosphonomethoxy)propyl]guanine], which “Selectivity Index JFH-1 (2a)” value [3] is on record?
A: >12.1

Q: And the “Selectivity Index” value (HIV-1LAI [5])?
A: >4.4×10^6

Q: What about the “Selectivity Index BM4-5 (1b)” value [4] of the same compound?
A: >11.9

Q: Which EC50 (HCMV) does the source give for `CCCCCCCCCCCCCCCCCCOCCOP(=O)(O)CO[C@H](CO)Cn1cnc2c(N)ncnc21` [Compound 1, octadecyloxyethyl 9-(S)-[3-hydroxy-2-(phosphonomethoxy)propyl]adenine] here?
A: 3 ± 1 nM

Q: What about the EC50 (Vaccinia) of the same compound?
A: 20 ± 10 nM

Q: What about the EC50 (Cowpox) of the same compound?
A: 50 ± 40 nM
